Like-named read-outs stand apart in the source and are kept apart here.
Assays:
[1] = changes in hemoglobin over seven weeks (HemoCue Hb 201); type: in vivo; conditions: mice followed for seven weeks, blood on days 0, 14, 28, 49; FIG. 3
[2] = system: Carrageenin-induced hind paw edema; assay: Carrageenin-induced hind paw edema; type: in vivo, SD rats; conditions: oral, specific predetermined doses; plethysmometer, baseline and three hours after induction
Method: C57Bl/6 mice and Sprague-Dawley (SD) rats were used. Animals were group-housed under controlled temperature (25° C.) and photoperiods (12:12-hour light-dark cycle), and allowed unrestricted access to standard diet and tap water, unless otherwise noted. Animals were allowed to acclimate to these conditions for at least 7 days before inclusion in experiments. For each group of experiments, animals were matched by age, sex, and body weight. Care and experimentation of mice were performed in accordance with guidelines under protocols approved by the Institutional Animal Care and Use Committee. To evaluate the effects of inflammation, Epi, ZnCar, Ibu, Nap, Cox, Ibu+Epi, Ibu+ZnCl, Ibu+ZnSt, Ibu+ZnCar, Ibu+Epi+ZnCl, and Ibu+Epi+ZnCar were administered in specific predetermined doses. Six rats were used in each group. Carrageenin-induced hind paw edema was established in SD rats using Lambda-carrageenin solution injected so into the right hind paw within the first hour of oral administration of these drugs. The paw volume was estimated using a plethysmometer both at baseline and three hours following induction.

[3] = system: acetylcholine-induced mouse writing model; assay: acetylcholine-induced mouse writing model (analgesic effects); type: in vivo, mice; conditions: oral, predetermined ED50 dose ranges, 30 min before i.p. acetylcholine; writhes counted for 30 min; FIG. 1
Method: C57Bl/6 mice and Sprague-Dawley (SD) rats were used. Animals were group-housed under controlled temperature (25° C.) and photoperiods (12:12-hour light-dark cycle), and allowed unrestricted access to standard diet and tap water, unless otherwise noted. Animals were allowed to acclimate to these conditions for at least 7 days before inclusion in experiments. For each group of experiments, animals were matched by age, sex, and body weight. Care and experimentation of mice were performed in accordance with guidelines under protocols approved by the Institutional Animal Care and Use Committee.
To evaluate the effects of pain, the analgesic effects of Epi, ZnCar, Ibu, Nap, Cox, Ibu+Epi, Ibu+ZnCl, Ibu+ZnSt, Ibu+ZnCar, Ibu+Epi+ZnCl, and Ibu+Epi+ZnCar were tested in acetylcholine-induced (8.3 mg/kg, i.p.) mouse writing model. Seven mice were used in each group and were administered drugs orally at predetermined ED50 dose ranges. Thirty minutes after the oral administration of test drug, mice were provided with an intraperitoneal injection of 5.5 mg/kg acetylcholine bromide. […] The number of writhes was counted for 30 min and percentage nociception was calculated and correlatively compared between the groups.

change in hemoglobin [1]	Compound	change in systolic blood pressure (in words) (mice, measured daily, tail-cuff, p<0.05)	clinical response, paw volume 3 hours after carrageenin injection [2]	antinociceptive response (number of writhes, percentage nociception) [3]	change in systolic blood pressure (in words) (mouse, in vivo)	systolic blood pressure (mean) (mouse, in vivo)
progressive decrease in hemoglobin	Cc1ccc(-c2cc(C(F)(F)F)nn2-c2ccc(S(N)(=O)=O)cc2)cc1 [Cox, celecoxib]	significant elevations in systolic blood pressure	–	–	–	–
–	O=C[C@@H](O)[C@@H](O)[C@H](O[C@@H]1O[C@H](CO)[C@H](O)[C@H](O)[C@H]1O)[C@H](O)CO [Epi, 4-O-β-galactopyranosyl-d-mannose]	–	did not exhibit therapeutic efficacy in the management of acute inflammation	did not exhibit therapeutic efficacy in the management of acute pain	–	–
progressive decrease in hemoglobin	COc1ccc2cc([C@H](C)C(=O)O)ccc2c1 [Nap, naproxen]	–	–	–	significant elevations in systolic blood pressure	–
–	zinc carnosine [ZnCar]	–	did not exhibit therapeutic efficacy in the management of acute inflammation	did not exhibit therapeutic efficacy in the management of acute pain	–	–

Compound	change in hemoglobin [1]	change in systolic blood pressure (in words) (mice, measured daily, tail-cuff, p<0.05)	clinical response, paw volume 3 hours after carrageenin injection [2]	antinociceptive response (number of writhes, percentage nociception) [3]	change in systolic blood pressure (in words) (mouse, in vivo)	systolic blood pressure (mean) (mouse, in vivo)
CC(C)Cc1ccc(C(C)C(=O)O)cc1 (centres unmarked) [Ibu, ibuprofen]	progressive highly significant decrease in hemoglobin	–	–	–	significant elevations in systolic blood pressure	129.3 mmHg
